Values of other authors, collected in patent US12096767B2, “Residual disinfectant composition” (Kimberly-Clark Worldwide, Inc., priority 2015, dated 2024).

Settings: determined at a temperature of 25° C.

O=CC(=O)O [glyoxylic acid]
pka1: 3.18
